Assay results as given in patent US11083726B2, “Methods and compositions for treating vasomotor symptoms” (UNIVERSITY OF WASHINGTON THROUGH ITS CENTER FOR …, priority 2012, dated 2021).

Tested on: LH secretion
Assay: LH secretion in ovariectomized mice after i.p. injection of a PRKA (serum LH by radioimmunoassay)
Type: in vivo
Description: Female mice (000664 C57BL/6J) were obtained from The Jackson Laboratory (Sacramento, Calif., USA) at 8 weeks of age. All animals were housed on a 12:12-h light-dark cycle (lights off at 1800) with food and water available ad libitum. All experiments were conducted in accordance with the National Institutes of Health (NIH) Animal Care and Use Guidelines and with approval of the Animal Care and Use Committee of the University of Washington.
Mice were ovariectomized 13 days prior to the experiment, which occurred at approximately 11 weeks of age. Mice were anesthetized with isoflurane and bilaterally ovariectomized (OVX). Briefly, the animal's ventral skin was shaved and cleaned, and small incisions were made in the skin and abdominal musculature. The gonads were identified and excised, the abdominal muscle was sutured, and the skin incision was closed with surgical clips.
Mice were injected i.p. (<500 μl) with vehicle [0.9% sterile saline (Hospira, Lake Forest, Ill., USA) with 3.6% sterile DMSO (Sigma Aldrich, Inc., St. Louis, Mo., USA), n=7] or the following doses of the PRKA, ICI204,448 hydrochloride (Tocris Bioscience, Bristol, UK), diluted in sterile saline/DMSO: 0.1 mg/kg (0.018% DMSO, n=6), 1 mg/kg (0.18% DMSO, n=4), 10 mg/kg (1.8% DMSO, n=5), or 20 mg/kg (3.6% DMSO, n=7). N.B. 1 mg/kg and 10 mg/kg groups run in different experiment/assay. […]

CN(C(=O)Cc1ccc(Cl)c(Cl)c1)C(CN1CCCC1)c1cccc(OCC(=O)O)c1.Cl (racemic) [ICI 204,448 hydrochloride, (RS)-[3-[1-[[(3,4-Dichlorophenyl)acetyl]methylamino]-2-(1-pyrrolidinyl)ethyl]phenoxy]acetic acid hydrochloride]
LH secretion (FIG. 2) (mice, 0.1, 1, 10, 20 mg/kg i.p., 1 mg/kg and 10 mg/kg in different experiment/assay): dose-dependent decrease
LH post injection (ovariectomized mice, High Dose 20 mg/kg i.p., 20 minutes after injection, vs. Low Dose 0.1 mg/kg (P<0.01) and Vehicle (P<0.001)): significantly decreased
